Results from patent publication US10588315B2, “Fungicidal compositions” (Syngenta Participations AG, priority 2012, dated 2020).
Several values for one entry are separate records, joined by “and”; a condition that tells them apart may be missing. Equal values may be shown once. Read-outs that look alike come from different tables or passages of the source.

Experiments:
Format in all cases: cell-based
[1] = system: Gaeumannomyces graminis; assay: Gaeumannomyces graminis / liquid culture; conditions: for inhibition at 0.2 ppm: 1.001 0.2000 ppm; for inhibition at 0.1 ppm: 1.001 0.1000 ppm
Protocol: (§1) Mycelia fragments or conidia suspensions of a fungus, prepared either freshly from liquid cultures of the fungus or from cryogenic storage, were directly mixed into nutrient broth. DMSO solutions of the test compound (max. 10 mg/ml) was diluted with 0.025% Tween20 by factor 50 and 10 μl of this solution was pipetted into a microtiter plate (96-well format). The nutrient broth containing the fungal spores/mycelia fragments was then added to give an end concentration of the tested compound. The test plates were incubated in the dark at 24° C. and 96% rh. The inhibition of fungal growth was determined photometrically and visually after 2-4 days, depending on the pathosystem, and percent antifungal activity relative to the untreated check was calculated.
Mycelial fragments of the fungus from cryogenic storage were directly mixed into nutrient broth (PDB potato dextrose broth). After placing a (DMSO) solution of test compound into a microtiter plate (96-well format), the nutrient broth containing the fungal spores was added.

[2] = system: Mycosphaerella graminicola (Septoria tritici); assay: Mycosphaerella graminicola (Septoria tritici) / liquid culture; conditions: Zymoseptoria tritici, read-out: observed % activity; for inhibition at 0.0031 ppm: 1.001 0.0031 ppm; for inhibition at 0.0016 ppm: 1.001 0.0016 ppm; for inhibition at 0.0008 ppm: 1.001 0.0008 ppm
Protocol: as §1
(§2) Conidia of the fungus from cryogenic storage were directly mixed into nutrient broth (PDB potato dextrose broth). After placing a (DMSO) solution of test compound into a microtiter plate (96-well format), the nutrient broth containing the fungal spores was added.

[3] = system: Alternaria solani; assay: Alternaria solani / liquid culture; conditions: for inhibition at 0.0031 ppm: 1.001 0.0031 ppm
Protocol: as §1, §2

[4] = system: Botryotinia fuckeliana (Botrytis cinerea); assay: Botryotinia fuckeliana (Botrytis cinerea) / liquid culture
Protocol: as §1, with “The nutrient broth containing the fungal spores/mycelia fragments was then added to give an end concentration of the tested compound.” left out
Conidia of the fungus from cryogenic storage were directly mixed into nutrient broth (Vogels broth). After placing a (DMSO) solution of test compound into a microtiter plate (96-well format), the nutrient broth containing the fungal spores was added.

[5] = system: Thanatephorus cucumeris (Rhizoctonia solani); assay: Thanatephorus cucumeris (Rhizoctonia solani) / liquid culture; conditions: for inhibition at 0.1 ppm: 1.001 0.1000 ppm; for inhibition at 0.05 ppm: 1.001 0.0500 ppm
Protocol: as §1
Mycelia fragments of a newly grown liquid culture of the fungus were directly mixed into nutrient broth (PDB potato dextrose broth). After placing a (DMSO) solution of the test compounds into a microtiter plate (96-well format), the nutrient broth containing the fungal material was added.

[6] = system: Monographella nivalis (Microdochium nivale); assay: Monographella nivalis (Microdochium nivale) / liquid culture; conditions: for inhibition at 0.025 ppm: 1.001 0.0250 ppm; for inhibition at 0.05 ppm: 1.001 0.0500 ppm
Protocol: as §1, §2

[7] = Gaeumannomyces graminis, B4.1, read-out: observed % activity
[8] = Gaeumannomyces graminis, B5.1, read-out: observed % activity
[9] = Gaeumannomyces graminis, B9.1, read-out: observed % activity
[10] = Thanatephorus cucumeris, B5.5, read-out: observed % activity
[11] = Monographella nivalis, B1.3, read-out: observed % activity
[12] = Monographella nivalis, B2.3, read-out: observed % activity
[13] = Monographella nivalis, B5.4, read-out: observed % activity

CON(C(=O)c1cn(C)nc1C(F)F)C(C)Cc1c(Cl)cc(Cl)cc1Cl (centres unmarked) [Compound 1.001, 3-(difluoromethyl)-N-methoxy-1-methyl-N-[1-methyl-2-(2,4,6-trichlorophenyl)ethyl]pyrazole-4-carboxamide]
observed % activity ([1]; 1.001 0.0063 ppm): 10%
observed % activity ([1]; 1.001 0.0125 ppm): 1%
observed % activity ([1]; 1.001 0.0250 ppm): 6%
observed % activity ([1]; 1.001 0.0500 ppm): 3% and 1% and 9%
inhibition at 0.0016 ppm ([1]; Gaeumannomyces graminis, 1.001 0.0016 ppm, read-out: observed % activity): 0%
inhibition at 0.2 ppm ([1]; Gaeumannomyces graminis, B1.1, read-out: observed % activity): 7%
inhibition at 0.0125 ppm ([1]; Gaeumannomyces graminis, B2.1, 1.001 0.0125 ppm, read-out: observed % activity): 0%
inhibition at 0.025 ppm ([1]; Gaeumannomyces graminis, B2.1, 1.001 0.0250 ppm, read-out: observed % activity): 4%
inhibition at 0.05 ppm ([1]; Gaeumannomyces graminis, B2.1, 1.001 0.0500 ppm, read-out: observed % activity): 0%
inhibition at 0.1 ppm ([1]; Gaeumannomyces graminis, B2.1, read-out: observed % activity): 0%
inhibition at 0.0031 ppm ([1]; Gaeumannomyces graminis, B3.1, 1.001 0.0031 ppm, read-out: observed % activity): 0%
inhibition at 0.0063 ppm ([1]; Gaeumannomyces graminis, B3.1, 1.001 0.0063 ppm, read-out: observed % activity): 0%
inhibition at 0.0125 ppm ([1]; Gaeumannomyces graminis, B3.1, 1.001 0.0125 ppm, read-out: observed % activity): 8%
inhibition at 0.025 ppm ([1]; Gaeumannomyces graminis, B3.1, 1.001 0.0250 ppm, read-out: observed % activity): 0%
inhibition at 0.05 ppm ([1]; Gaeumannomyces graminis, B3.1, 1.001 0.0500 ppm, read-out: observed % activity): 0%
inhibition at 0.0125 ppm ([1]; Gaeumannomyces graminis, B4.1, 1.001 0.0125 ppm, read-out: observed % activity): 0%
inhibition at 0.025 ppm ([1]; Gaeumannomyces graminis, B4.1, 1.001 0.0250 ppm, read-out: observed % activity): 0%
inhibition at 0.05 ppm ([1]; Gaeumannomyces graminis, B4.1, 1.001 0.0500 ppm, read-out: observed % activity): 0%
inhibition at 0.1 ppm [1, 7]: 0%
inhibition at 0.2 ppm [1, 7]: 12%
inhibition at 0.025 ppm ([1]; Gaeumannomyces graminis, B5.1, 1.001 0.0250 ppm, read-out: observed % activity): 0%
inhibition at 0.05 ppm ([1]; Gaeumannomyces graminis, B5.1, 1.001 0.0500 ppm, read-out: observed % activity): 2%
inhibition at 0.1 ppm [1, 8]: 0%
inhibition at 0.2 ppm [1, 8]: 0%
inhibition at 0.0063 ppm ([1]; Gaeumannomyces graminis, B6.1, 1.001 0.0063 ppm, read-out: observed % activity): 0%
inhibition at 0.025 ppm ([1]; Gaeumannomyces graminis, B6.1, 1.001 0.0250 ppm, read-out: observed % activity): 0%
inhibition at 0.1 ppm ([1]; Gaeumannomyces graminis, B6.1, read-out: observed % activity): 0%
inhibition at 0.0125 ppm ([1]; Gaeumannomyces graminis, B9.1, 1.001 0.0125 ppm, read-out: observed % activity): 0%
inhibition at 0.025 ppm ([1]; Gaeumannomyces graminis, B9.1, 1.001 0.0250 ppm, read-out: observed % activity): 0%
inhibition at 0.05 ppm ([1]; Gaeumannomyces graminis, B9.1, 1.001 0.0500 ppm, read-out: observed % activity): 0%
inhibition at 0.1 ppm [1, 9]: 0%
inhibition at 0.2 ppm [1, 9]: 0%
inhibition at 0.0004 ppm ([2]; 1.001 0.0004 ppm): 9%
inhibition at 0.0031 ppm [2]: 88%
inhibition at 0.0016 ppm ([2]; B1.5): 52%
inhibition at 0.0016 ppm ([2]; B3.5): 42%
inhibition at 0.0031 ppm ([2]; B3.5): 83%
inhibition at 0.0008 ppm ([2]; B5.6): 27%
inhibition at 0.0016 ppm ([2]; B5.6): 45%
inhibition at 0.0031 ppm ([2]; B5.6): 82%
inhibition at 0.0008 ppm ([2]; B6.4): 11%
inhibition at 0.0016 ppm ([2]; B6.4): 53%
inhibition at 0.0031 ppm ([2]; B6.4): 89%
observed % activity ([3]; 1.001 0.0004 ppm): 11% and 10%
observed % activity ([3]; 1.001 0.0008 ppm): 24%
observed % activity ([3]; 1.001 0.0016 ppm): 40% and 46%
inhibition at 0.0004 ppm ([3]; Alternaria solani, 1.001 0.0004 ppm, read-out: observed % activity): 9%
inhibition at 0.0063 ppm ([3]; Alternaria solani, 1.001 0.0063 ppm, read-out: observed % activity): 75%
inhibition at 0.0008 ppm ([3]; Alternaria solani, B1.2, 1.001 0.0008 ppm, read-out: observed % activity): 4%
inhibition at 0.0016 ppm ([3]; Alternaria solani, B1.2, 1.001 0.0016 ppm, read-out: observed % activity): 32%
inhibition at 0.0031 ppm ([3]; Alternaria solani, B1.2, read-out: observed % activity): 64%
inhibition at 0.0016 ppm ([3]; Alternaria solani, B2.2, 1.001 0.0016 ppm, read-out: observed % activity): 39%
inhibition at 0.0016 ppm ([3]; Alternaria solani, B3.2, 1.001 0.0016 ppm, read-out: observed % activity): 45%
inhibition at 0.0031 ppm ([3]; Alternaria solani, B3.2, read-out: observed % activity): 66%
inhibition at 0.0008 ppm ([3]; Alternaria solani, B4.2, 1.001 0.0008 ppm, read-out: observed % activity): 29%
inhibition at 0.0016 ppm ([3]; Alternaria solani, B4.2, 1.001 0.0016 ppm, read-out: observed % activity): 47%
inhibition at 0.0031 ppm ([3]; Alternaria solani, B4.2, read-out: observed % activity): 73%
inhibition at 0.0008 ppm ([3]; Alternaria solani, B5.2, 1.001 0.0008 ppm, read-out: observed % activity): 3%
inhibition at 0.0016 ppm ([3]; Alternaria solani, B5.2, 1.001 0.0016 ppm, read-out: observed % activity): 36%
inhibition at 0.0031 ppm ([3]; Alternaria solani, B5.2, read-out: observed % activity): 75%
inhibition at 0.0016 ppm ([3]; Alternaria solani, B6.2, 1.001 0.0016 ppm, read-out: observed % activity): 35%
inhibition at 0.0031 ppm ([3]; Alternaria solani, B6.2, read-out: observed % activity): 71%
inhibition at 0.0016 ppm ([3]; Alternaria solani, B9.2, 1.001 0.0016 ppm, read-out: observed % activity): 37%
inhibition at 0.0031 ppm ([3]; Alternaria solani, B9.2, read-out: observed % activity): 67%
observed % activity ([4]; 1.001 0.0031 ppm): 76%
observed % activity ([4]; 1.001 0.0063 ppm): 69% and 63% and 85% and 64% and 88% and 74% and 87%
observed % activity ([4]; 1.001 0.0125 ppm): 84% and 88%
inhibition at 0.0016 ppm ([4]; Botrytis cinerea, 1.001 0.0016 ppm (Table B55), read-out: observed % activity): 38%
inhibition at 0.0031 ppm ([4]; Botrytis cinerea, 1.001 0.0031 ppm (Table B54), read-out: observed % activity): 75%
inhibition at 0.0031 ppm ([4]; Botrytis cinerea, 1.001 0.0031 ppm (Table B55), read-out: observed % activity): 53%
inhibition at 0.0063 ppm ([4]; Botrytis cinerea, 1.001 0.0063 ppm (Table B54), read-out: observed % activity): 89%
inhibition at 0.0063 ppm ([4]; Botrytis cinerea, 1.001 0.0063 ppm (Table B55), read-out: observed % activity): 66%
inhibition at 0.0125 ppm ([4]; Botrytis cinerea, 1.001 0.0125 ppm, read-out: observed % activity): 83%
observed % activity ([5]; 1.001 0.0250 ppm): 8%
inhibition at 0.0031 ppm ([5]; Thanatephorus cucumeris, 1.001 0.0031 ppm, read-out: observed % activity): 5%
inhibition at 0.0063 ppm ([5]; Thanatephorus cucumeris, 1.001 0.0063 ppm, read-out: observed % activity): 0%
inhibition at 0.0125 ppm ([5]; Thanatephorus cucumeris, B1.4, 1.001 0.0125 ppm, read-out: observed % activity): 0%
inhibition at 0.025 ppm ([5]; Thanatephorus cucumeris, B1.4, 1.001 0.0250 ppm, read-out: observed % activity): 6%
inhibition at 0.1 ppm ([5]; Thanatephorus cucumeris, B1.4, read-out: observed % activity): 0%
inhibition at 0.025 ppm ([5]; Thanatephorus cucumeris, B5.5, 1.001 0.0250 ppm, read-out: observed % activity): 13%
inhibition at 0.05 ppm [5, 10]: 1%
inhibition at 0.1 ppm [5, 10]: 17%
inhibition at 0.05 ppm ([5]; Thanatephorus cucumeris, B9.3, read-out: observed % activity): 0%
inhibition at 0.2 ppm ([5]; Thanatephorus cucumeris, B9.3, 1.001 0.2000 ppm, read-out: observed % activity): 6%
observed % activity ([6]; 1.001 0.0016 ppm): 4%
observed % activity ([6]; 1.001 0.0031 ppm): 10% and 6%
observed % activity ([6]; 1.001 0.0125 ppm): 4%
observed % activity ([6]; 1.001 0.1000 ppm): 61%
observed % activity ([6]; 1.001 0.2000 ppm): 90% and 87% and 79%
inhibition at 0.004 ppm ([6]; Monographella nivalis, 1.001 0.004 ppm, read-out: observed % activity): 0%
inhibition at 0.1 ppm ([6]; Monographella nivalis, 1.001 0.1000 ppm (Table B54), read-out: observed % activity): 22%
inhibition at 0.1 ppm ([6]; Monographella nivalis, 1.001 0.1000 ppm (Table B55), read-out: observed % activity): 19%
inhibition at 0.2 ppm ([6]; Monographella nivalis, 1.001 0.2000 ppm, read-out: observed % activity): 85%
inhibition at 0.0125 ppm ([6]; Monographella nivalis, B1.3, 1.001 0.0125 ppm, read-out: observed % activity): 0%
inhibition at 0.025 ppm [6, 11]: 5%
inhibition at 0.05 ppm [6, 11]: 45%
inhibition at 0.2 ppm ([6]; Monographella nivalis, B1.3, 1.001 0.2000 ppm, read-out: observed % activity): 78%
inhibition at 0.025 ppm [6, 12]: 0%
inhibition at 0.05 ppm [6, 12]: 26%
inhibition at 0.0008 ppm ([6]; Monographella nivalis, B3.4, 1.001 0.0008 ppm, read-out: observed % activity): 1%
inhibition at 0.05 ppm ([6]; Monographella nivalis, B4.3, read-out: observed % activity): 15%
inhibition at 0.1 ppm ([6]; Monographella nivalis, B4.3, 1.001 0.1000 ppm, read-out: observed % activity): 64%
inhibition at 0.025 ppm [6, 13]: 2%
inhibition at 0.05 ppm [6, 13]: 9%
inhibition at 0.1 ppm ([6]; Monographella nivalis, B5.4, 1.001 0.1000 ppm, read-out: observed % activity): 60%
inhibition at 0.0016 ppm ([6]; Monographella nivalis, B6.3, 1.001 0.0016 ppm, read-out: observed % activity): 0%
inhibition at 0.0031 ppm ([6]; Monographella nivalis, B6.3, 1.001 0.0031 ppm, read-out: observed % activity): 3%
